Laboratory results from patent publication US9169232B2, “3-(5-methyl-2-oxo-l, 3-dioxol-4-yl) methyloxy-2-trans-[(4-chloro phenyl) cyclohexyl][1,4]naphthaquinone-atovaquone prodrug” (Alkem Laboratories Limited, priority 2011, dated 2015).

Experiments:
[1] = solubility of the prodrug compared with atovaquone; type: physicochemical
Description: (§1) The Atovaquone prodrug compound of formula (I) of the present invention overcomes the problems associated with poor solubility and variable bioavailability of atovaquone.

[2] = plasma levels of atovaquone after administration of the prodrug; settings: in vivo
Description: as §1

[3] = in-vitro and animal study of toxicity; type: in vivo
Description: as §1

Cc1oc(=O)oc1COC1=C(C2CCC(c3ccc(Cl)cc3)CC2)C(=O)c2ccccc2C1=O (stereo not drawn) [compound of formula (I), 3-(5-methyl-2-oxo-1,3-dioxol-4-yl)methyloxy-2-trans-[(4-chlorophenyl)cyclohexyl][1,4]naphthaquinone]
solubility compared with atovaquone [1]: better solubility than atovaquone
plasma levels of atovaquone compared with levels after administration of atovaquone [2]: non-variable plasma levels of atovaquone
toxicity [3]: toxicity in the acceptable range
